Measurements from patent publication US20200316208A1, “MECHANICAL PROCESSING OF BIOPOLYMERS” (SolyPlus Berlin GmbH, priority 2017, published 2020).

Test system: skin
Details: application to skin; 0.3% (m/m) histamine dihydrochloride solution used

Cl.Cl.NCCc1c[nH]cn1 [histamine solution droplet, Histamine dihydrochloride]
skin reaction (swelling, reddening, itchy feeling): No effect
